From US20220249431A1, “ANTIMYCOTIC” (Karl-Franzens-Universität Graz, priority 2019, published 2022) come the findings set out here.

The subject of this assay is C. glabrata biofilm. The assay is described as follows: Biofilm inhibition concentration (XTT). Format: cell-based, Candida glabrata. The note with it: Nakaseomyces glabratus; C. glabrata biofilm formation reduced to 50% of untreated control; read-out: BIC50. Here is the method:
In short, RPMI medium was inoculated with an overnight culture to an OD (optical density) of 0.1, transferred to a U-bottom 96-well plate (MLS, Belgium) and treated with serial dilutions of substances. After the adherence phase (1 h, 37° C.), supernatant was removed, adherent cells were washed with PBS and fresh media (including substances) was added. Biofilms were then allowed to grow for 24 h at 37° C. Formed biofilms were then analyzed for their metabolic activity. Therefore, C. albicans biofilm cells were treated with CTB (cell titer Blue®; Promega, Germany), diluted 1:100 in PBS. […] Sigma, Germany or ABCR, Germany) was used instead. Thereby, biofilm cells were treated with an XTT solution (0.25 mg/mL XTT+0.1 μM menadione in PBS) at 37° C. in the dark and OD490 was measured.

For the molecule `O=c1c(O)c(-c2ccccc2)oc2ccc(O)cc12` [3,6-dihydroxyflavone], the IC50 turned out to be 23.4 ± 9.7 µM.
